This passage reports LD50 results from patent US10026660B2, “Method of etching the back of a wafer to expose TSVs” (priority 2014, dated 2018).

This data set has as its system rat. Briefly: Rat dermal exposure toxicity (LD50). Conditions: rat dermal exposure (skin contact). The text has this: LD50 is the dosage for 50% or more of test rats to […] after skin contact with the test chemicals in a given time. Generally, the higher the LD50, the less toxic the chemical.

What is called LD50 is the dose at which mortality reaches 50%. A low value points to a more toxic substance. In turn, `C[N+](C)(C)C.[OH-]` [TMAH, Tetramethylammonium hydroxide] registered an LD50 of 157 mg/kg.
